Source: PubChem BioAssay (NCI)
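Following 48 hours of exposure in 96-well plates, responses at five concentrations were used to interpolate endpoints linearly. TGI: concentration producing complete growth inhibition.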

Assays:
Assay in all cases: NCI anticancer screen, dose series, 48 h
[1] = test system: LOX IMVI melanoma
[2] = test system: OVCAR-5 ovarian
[3] = test system: KM12 colon
[4] = test system: UO-31 renal
[5] = test system: DLD-1 colon
[6] = test system: HCT-15 colon
[7] = test system: SF-268 CNS
[8] = test system: IGROV1 ovarian
[9] = test system: HOP-62 NSCLC
[10] = test system: UACC-257 melanoma
[11] = test system: SK-MEL-5 melanoma
[12] = test system: OVCAR-3 ovarian
[13] = test system: SN12C renal
[14] = test system: HCC-2998 colon
[15] = test system: SF-539 CNS
[16] = test system: UACC-62 melanoma
[17] = test system: HOP-18 NSCLC
[18] = test system: A549 NSCLC
[19] = test system: MALME-3M melanoma
[20] = test system: 786-0 renal
[21] = test system: SNB-19 CNS
[22] = test system: COLO 205 colon
[23] = test system: SF-295 CNS
[24] = test system: SK-MEL-28 melanoma
[25] = test system: TK-10 renal
[26] = test system: NCI-H23 lung
[27] = test system: NCI-H226 lung
[28] = test system: SK-OV-3 ovarian
[29] = test system: CCRF-CEM leukemia
[30] = test system: EKVX NSCLC
[31] = test system: XF 498 CNS
[32] = test system: HT29 colon
[33] = test system: RXF 393 renal
[34] = test system: M14 melanoma
[35] = test system: MOLT-4 leukemia
[36] = test system: DMS 114 small cell lung
[37] = test system: RPMI-8226 leukemia
[38] = test system: ACHN renal
[39] = test system: U251 CNS
[40] = test system: OVCAR-8 ovarian
[41] = test system: CAKI-1 renal
[42] = test system: HL-60(TB) leukemia
[43] = test system: SNB-78 CNS
[44] = test system: SR leukemia
[45] = test system: OVCAR-4 ovarian
[46] = test system: LXFL 529 NSCLC
[47] = test system: HOP-92 NSCLC
[48] = test system: A498 renal
[49] = test system: K-562 leukemia
[50] = test system: SNB-75 CNS
[51] = test system: KM20L2 colon
[52] = test system: HCT-116 colon
[53] = test system: SW-620 colon
[54] = test system: NCI-H460 lung
[55] = test system: M19-MEL melanoma
[56] = test system: SK-MEL-2 melanoma
[57] = test system: NCI-H522 lung

Measured: TGI

Cc1cc(O)c2c3c1C(=O)Oc1c(CO)c(O)c(C(=O)O)c(c1O3)C=NN=Cc1c3c(c(CO)c(O)c1C(=O)O)OC(=O)c1c(C)cc(O)c(c1O3)C=NN=C2
88.1 µM: [12]
> 1 µM: [29] | [35] | [37] | [42] | [44] | [49]
not listed: [56] | [57]
> 100 µM: all other assays above

COc1ccc2cc3[n+](cc2c1O)CCc1cc2c(cc1-3)OCO2
not listed: [11] | [36] | [41] | [44] | [46] | [47]
> 100 µM: all other assays above
